From patent US12357645B2, “Drug combination for treatment of gastric cancer” (priority 2023, dated 2025)

Tests used:
[1] = test system: dogs; test: Definitive toxicity studies in dogs (intravenous, oral gavage); assay type: in vivo
Protocol: (§1) As clinical development of minnelide prodrug was initiated using an intravenous drug product, IND-enabling toxicology studies were conducted in both rats and dogs using the intravenous route of administration. The results of these studies supported first-in-human clinical trials involving intravenous administration of minnelide prodrug to patients with advanced solid tumors. To support the clinical development of a new solid oral dosage form of minnelide prodrug (capsules), exploratory and definitive toxicity studies were conducted with minnelide prodrug in solution via oral gavage in dogs. Taken together, the results of the intravenous and oral toxicity studies conducted with minnelide prodrug indicate that the target organ profile of minnelide prodrug is consistent in both species (rats and dogs) when administered by either route of administration (intravenous or oral).

[2] = test system: advanced gastric cancer (AGC); test: Phase 1 study of minnelide prodrug alone or with paclitaxel in advanced gastric cancer (NCT 05566834): antitumor activity (RECIST v1.1; BOR, ORR, DCR, PFS, OS); assay type: in vivo, human
Protocol: Target Lesions. All measurable lesions up to a maximum of two lesions per organ and five lesions in total, representative of all involved organs, were identified as target lesions and recorded and measured at baseline. Target lesions were selected on the basis of their size (lesions with the longest diameter) and were representative of all involved organs, as well as their suitability for reproducible repeated measurements. All measurements were recorded using calipers if clinically assessed.
A sum of the diameters (longest for non-nodal lesions, short axis for nodal lesions) for all target lesions were calculated and reported as the baseline sum diameters, which were used as a reference to further characterize any objective tumor regression in the measurable dimension of the disease. If lymph nodes were included in the sum, only the short axis contributed.
Study design. This was an open-label, nonrandomized, phase 1 study conducted at Samsung Medical Center (SMC) in Korea. The study consisted of three regimens: Monotherapy with minnelide prodrug (Regimen A) and Combination therapy (minnelide prodrug plus paclitaxel), which was further divided into Regimen B and C.
Patients. Adult (≥20 years of age) Korean patients with histologically confirmed advanced-unresectable or metastatic gastric or gastro-esophageal junction adenocarcinoma, who had failed initial standard therapy or for whom no standard treatment was available, were eligible to participate in the study, regardless of HER2 status. Study treatment was discontinued if the patient experienced radiological progressive disease (PD) per Response Evaluation Criteria in Solid Tumors version 1.1 (RECIST v1.1) as assessed by the investigator, clinical progression as assessed by the investigator, or developed unacceptable toxicity.
Treatments. In Regimen A, 3-5 patients were treated at escalating doses of minnelide prodrug alone to determine the maximum tolerated dose (MTD). Minnelide prodrug was administered per oral (PO) once daily for 21 days followed by a 7-day rest period, starting at 1 mg, and escalating to 1.25 mg, and 1.5 mg. One cycle was equal to 28 days and minnelide prodrug was given with the patient in a fasting state. In Regimen B, the same dosing scheme was used for minnelide prodrug 0.25 mg PO in combination with paclitaxel intravenously on days 1, 8 and 15 (Q4W), starting at 60 mg/m^2, and escalating to 80 mg/m^2. In Regimen C, patients were treated with paclitaxel 80 mg/m^2 given intravenously on days 1, 8 and 15 (Q4W) in combination with minnelide prodrug PO once daily on days 1 to 5, 8 to 12 and 15 to 19, starting at 0.5 mg, escalating to 0.75 mg, 1.0 mg, and 1.25 mg. Dose-limiting toxicities (DLTs) were assessed during cycle 1. Treatment continued until disease progression, death, unacceptable toxicity, or patient or investigator decision to discontinue.
Outcomes. In this phase 1 study, the primary objective was to determine the maximum tolerated dose (MTD) and the dose limiting toxicities (DLT) of minnelide prodrug when given alone or in combination with paclitaxel and to establish recommended phase 2 dose (RP2D) of single-agent minnelide prodrug and in combination with paclitaxel every 4 weeks. Secondary objectives were to assess any evidence of antitumor activity of minnelide prodrug alone and in combination with paclitaxel by objective radiographic assessment. Antitumor activity was assessed by objective response rate (ORR). Disease control rate (DCR), duration of response (DOR), progression-free survival (PFS) and overall survival (OS) analysis were performed.
Assessment. Adverse events were graded using National Cancer Institute Common Terminology Criteria for Adverse Events (NCI CTCAE), version 4.03. Tumor assessments were performed after cycles 2, 4, 6, and 8, and every 4 cycles thereafter, or as indicated. Response was determined by investigators using RECIST criteria, version 1.1. […]

[3] = cited from earlier work
[4] = test system: patients with Advanced Solid Tumors; assay type: in vivo, human
Source text: Oral Minnelide Prodrug. A Phase 1, Multi-Center, Open-Label, Dose-Escalation, Safety, Pharmacokinetic, and Pharmacodynamic Study of Minnelide™ Capsules given alone or in combination with protein-bound paclitaxel in patients with Advanced Solid Tumors. A total of 44 patients were enrolled and dosed in the Phase 1 study, 32 in the monotherapy regimen, and 12 in the combination regimen. The primary reason for discontinuation of treatment has been disease progression. There were 9 deaths in the study, 7 of which were assessed as not related to minnelide prodrug and were after discontinuation of the study drug. One patient on the 1.25 mg monotherapy regimen passed away from G5 related sepsis.

[5] = test system: gastric cancer cell lines MKN28 and MKN45; details: inhibits Sp1 to decrease HSP70; cited from earlier work
[6] = test system: rats; test: Definitive toxicity studies in rats (intravenous); assay type: in vivo; details: definitive toxicity study
Protocol: as §1

[7] = test system: ovarian carcinoma cells; test: Proliferation of ovarian carcinoma cells in vitro (activated with alkaline phosphatase); assay type: cell-based; details: concentration-dependent, 50-200 nM
[8] = Regimen A (PO daily x21 d/28 d), n = 11
[9] = Regimen A, nine patients who completed at least 1 cycle with measurable lesions
[10] = Regimen A, Kaplan-Meier estimate
[11] = 44 patients, alone or with protein-bound paclitaxel

SMILES: CC(C)[C@]12O[C@H]1[C@@H]1O[C@]13[C@]1(O[C@H]1C[C@H]1C4=C(CC[C@@]13C)C(=O)OC4)[C@@H]2OCOP(=O)([O-])[O-].[Na+].[Na+] [minnelide prodrug, disodium; [(1S,2S,4S,5S,7S,8R,9R,11S, 13S)-1-methyl-17-oxo-7-propan-2-yl-3,6,10,16-tetraoxaheptacyclo [11.7.0.0^2,4.0^2,9.0^5,7.0^9,11.0^14,18]icos-14 (18)-en-8-yl]oxymethyl phosphate]
- histopathology of reproductive tract tissues, males and females ([1]; definitive toxicity studies, dogs): adverse, largely irreversible histopathological effects
- histopathology of the gastrointestinal tract ([1]; oral gavage for up to 28 consecutive days): No adverse histopathological effects
- Duration of OS, Range ([2]; Regimen A): 1.6-11.1 months
- Duration of PFS, Range ([2]; Regimen A): 0.7-5.4 months
- PFS events, n (%) ([2]; Regimen A): 9 n (%)
- BOR NE, number of patients [2, 8]: 2
- BOR PD, number of patients [2, 8]: 5
- BOR SD, number of patients [2, 8]: Four
- DCR, n (%) [2, 8]: 4 (36.4) n (%)
- ORR, n (%) [2, 8]: 0 n (%)
- BOR SD, number of patients ([2]; Regimen A (PO daily x21 d/28 d), n = 11, listed as Minnelide prodrug): 4
- BOR PD, share of patients [2, 9]: 55.6%
- BOR SD, share of patients [2, 9]: 44.4%
- DCR [2, 9]: 44.4%
- Duration of OS, Median [2, 10]: 5.3 months
- Duration of PFS, Median [2, 10]: 1.6 months
- duration of stable disease (one patient) ([2]; single agent, patient had failed four lines of therapy including immunotherapy): 5.4 months
- aqueous solubility [3]: greater aqueous solubility
- Serious Adverse Events related to the study drug [4, 11]: 4
- Serious Adverse Events, number [4, 11]: 28
- patients who discontinued study drug due to TEAE [4, 11]: Four
- patients with Serious Adverse Events [4, 11]: 17
- deaths in the study ([4]; 44 patients: 32 monotherapy, 12 combination): 9
- deaths assessed as not related to minnelide prodrug ([4]; after discontinuation of the study drug): 7
- patients with at least 1 AE considered related to the study drug ([4]; in vivo): Twenty-seven
- SAE cases considered dose limiting toxicities (DLTs) ([4]; two events of sepsis, one influenza A pneumonia): Three
- cell death [5]: induce cell death
- histopathology of reproductive tract tissues, males and females [6]: adverse, largely irreversible histopathological effects
- proliferation [7]: reduced the proliferation
